Reference: patent US9988430B2, “Stable GLP-1 based GLP-1/glucagon receptor co-agonists” (Novo Nordisk A/S, priority 2014, dated 2018)
pIC50: −log10 of the molar value. *1 amine or outer side, *2 acyl side, *3 side chain or, on linkers, in order; H or OH if unused. Where a SMILES comes first, the peptide text is derived from it. Side-chain parts run from the residue outwards. [ ]: non-standard residue; d: D form. The star is where a group is joined. C18 diacid = O=C(O)CCCCCCCCCCCCCCCCC(=O)*; γGlu = O=C(O)[C@H](CCC(=O)[*:2])N[*:1]; Desaminohistidyl = O=C(CCc1c[nH]cn1)*; AEEA = NCCOCCOCC(=O)O; Aib = CC(C)(N)C(=O)O

Target: T1, human glucagon receptor (Homo sapiens, UniProt P47871)
T1 construct: expressed in transfected cells; host or cells: membranes of BHK cells, clone BHK hGCGR A3*25
Assay: Assay (II)(b): glucagon receptor binding, [125I]-glucagon displacement, SPA on BHK membranes
Details: displacement of [125I]-glucagon, membranes with human glucagon receptor; read-out: IC50 GlucagonR
Experimental: Assay (II): GLP-1 and Glucagon Receptor Binding The purpose of this assay is to test the in vitro receptor binding activity of the GLP-1 derivatives of the invention. (b) Glucagon Receptor Binding The glucagon receptor (glucagonR) binding activity is a measure of affinity of a derivative for the human glucagon receptor. The glucagon receptor binding of each derivative were determined with competitive binding, displacing [^125I]-glucagon bound to glucagon receptors expressed in cell membranes associated with wheat germ agglutinin (WGA) scintillation proximity assay (SPA) beads. Each derivative was added in a series of concentrations to isolated membranes comprising the human glucagon receptor and displacement of the labelled ligand was monitored. The receptor binding was reported as the concentration at which half of the labelled ligand is displaced from the receptor, the IC^50 value. The following chemicals were used in the assay: DMEM w Glutamax (Gibco 61965-026), Pen/strep (Invitrogen 15140-122), G418 (Invitrogen 10131-027), Versene (Gibco 15040), 1 M Hepes (Gibco 15630), PBS (Invitrogen 14190-094), fetal calf serum (Invitrogen 16140-071), MgCl2 (Merck 1.05832.1000), EDTA (Invitrogen 15575-038), CaCl2 (Sigma, C5080), Tween 20 (Amresco 0850C335), ovalbumin (Sigma A5503), SPA particles (wheat germ agglutinin (WGA) SPA beads, Perkin Elmer RPNQ0001), [125I]-glucagon (produced in-house), OptiPlate™-96 (Packard 6005290). HME buffer consisted of 25 mM HEPES, 2 mM MgCl2 and 1 mM EDTA, and pH was adjusted to 7.4. Assay buffer consisted of 50 mM HEPES supplemented with 5 mM MgCl2, 1 mM CaCl2, 0.02% Tween 20 and 0.1% Ovalbumin, and pH was adjusted to 7.4. The cells used in this assay (clone BHK hGCGR A3*25) were BHK cells stable transfected with an expression plasmid comprising the cDNA encoding the human glucagon receptor. The cells were grown at 5% CO2 in DMEM, 10% fetal calf serum, 1% Pen/Strep (Penicillin/Streptomycin) and 1.0 mg/ml of the selection marker G418. To make a membrane preparation the cells were grown to approximately 80% confluence. The cells were washed twice in phosphate-buffered saline and harvested. The cells were pelleted using a brief centrifugation and the cell pellet was kept on ice. Lyse the cells by adding approx. 5 ml HME buffer, mix by pipetting and snap freeze in liquid nitrogen. Thaw quickly and add HME buffer to 10 ml. The cell pellet was homogenised with an ULTRA-THURRAX dispersing instrument for 20-30 seconds. The homogenate was centrifuged at 20.000×G, 4° C. for 10 minutes. The pellet was resuspended (homogenised) in 1-2 ml HME buffer. The protein concentration was determined. The membranes were aliquoted and snapfrozen in liquid nitrogen and stored at minus 80° C. • 1. For the receptor binding assay 50 μl of the assay buffer was added to each well of an assay plate. • 2. Test compounds were serially diluted to give the following concentrations: 8×10EE-7 M, 8×10EE-8 M, 8×10EE-9 M, 8×10EE-10 M, 8×10EE-11 M, 8×10EE-12 M and 8×10EE-13 M. Twenty-five μl were added to appropriate wells in the assay plate. • 3. Cell membrane aliquots were thawed and diluted to their working concentration. Fifty μl were added to each well in the assay plate. • 4. WGA SPA beads were suspended in assay buffer at 20 mg/ml. The suspension was diluted to 10 mg/ml in assay buffer just prior to addition to the assay plate. Fifty μl were added to each well in the assay plate. • 5. The incubation was started by adding 25 μl of 480 pM solution of [125I]-glucagon to each well of the assay plate. A 25 μl aliquot was reserved for measuring total counts/well. • 6. The assay plate was incubated for 2 h at 25° C. • 7. The assay plate was centrifuged for 10 min at 1500 rpm. • 8. The assay plate was read in a Perkin Elmer TopCount NXT instrument. Calculations The data from the TopCount instrument were transferred to GraphPad Prism software. The software averaged the values for the replicates and performed a non-linear regression. […]

T1 sequence (P47871 26-477): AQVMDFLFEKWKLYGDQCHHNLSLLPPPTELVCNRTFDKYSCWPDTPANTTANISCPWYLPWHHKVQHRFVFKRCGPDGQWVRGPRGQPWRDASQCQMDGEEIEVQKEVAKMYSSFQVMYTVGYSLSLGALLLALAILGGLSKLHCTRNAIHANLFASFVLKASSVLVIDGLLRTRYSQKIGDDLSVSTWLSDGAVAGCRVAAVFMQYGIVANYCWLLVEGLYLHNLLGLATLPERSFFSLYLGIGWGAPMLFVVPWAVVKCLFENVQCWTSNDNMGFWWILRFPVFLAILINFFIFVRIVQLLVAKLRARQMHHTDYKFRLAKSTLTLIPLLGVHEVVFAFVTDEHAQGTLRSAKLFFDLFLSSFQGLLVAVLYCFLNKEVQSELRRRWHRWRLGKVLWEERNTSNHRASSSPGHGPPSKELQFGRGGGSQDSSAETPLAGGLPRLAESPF

Row | pIC50 | SMILES
1 | 8.37 | CC[C@H](C)[C@H](NC(=O)[C@H](Cc1ccccc1)NC(=O)[C@H](CCC(=O)O)NC(=O)[C@H](CCCNC(=N)N)NC(=O)[C@H](C)NC(=O)[C@H](C)NC(=O)[C@H](CCC(N)=O)NC(=O)[C@H](CCC(=O)O)NC(=O)[C@H](CCC(=O)O)NC(=O)[C@H](CC(C)C)NC(=O)[C@H](Cc1ccc(O)cc1)NC(=O)[C@H](CCCCN)NC(=O)[C@H](CO)NC(=O)[C@@H](NC(=O)[C@H](CC(=O)O)NC(=O)[C@H](CO)NC(=O)[C@@H](NC(=O)[C@H](Cc1ccccc1)NC(=O)[C@@H](NC(=O)CNC(=O)[C@H](Cc1c[nH]cn1)NC(=O)C(C)(C)NC(=O)CCc1c[nH]cn1)[C@@H](C)O)[C@@H](C)O)C(C)C)C(=O)N[C@@H](C)C(=O)N[C@@H](Cc1c[nH]c2ccccc12)C(=O)N[C@@H](CC(C)C)C(=O)N[C@@H](CC(C)C)C(=O)N[C@@H](CCCCNC(=O)COCCOCCNC(=O)COCCOCCNC(=O)CC[C@H](NC(=O)CC[C@H](NC(=O)CCCCCCCCCCCCCCCCC(=O)O)C(=O)O)C(=O)O)C(=O)N[C@H](C(N)=O)[C@@H](C)O [Example 5, N^ε34-[2-[2-[2-[[2-[2-[2-[[(4S)-4-carboxy-4-[[(4S)-4-carboxy-4-(17-carboxyheptadecanoylamino)butanoyl]amino]butanoyl]amino]ethoxy]ethoxy]acetyl]amino]ethoxy]ethoxy]acetyl]-[Imp7,Aib8,His9,Lys18,Glu22,Arg26,Leu33,Thr35]-GLP-1-(7-35)-peptide amide] (Desaminohistidyl-[Aib]HGTFTSDVSKYLEEQAAREFIAWLLK([AEEA-AEEA-γGlu-γGlu-C18 diacid])T-NH2)
2 | 7.73 | CC[C@H](C)[C@H](NC(=O)[C@H](Cc1ccccc1)NC(=O)[C@H](CCC(=O)O)NC(=O)[C@H](CCCNC(=N)N)NC(=O)[C@H](C)NC(=O)[C@H](C)NC(=O)[C@H](CCCNC(=N)N)NC(=O)CNC(=O)[C@H](CCC(=O)O)NC(=O)[C@H](CC(C)C)NC(=O)[C@H](Cc1ccc(O)cc1)NC(=O)[C@H](CCCNC(=N)N)NC(=O)[C@H](CO)NC(=O)[C@@H](NC(=O)[C@H](CC(=O)O)NC(=O)[C@H](CO)NC(=O)[C@@H](NC(=O)[C@H](Cc1ccccc1)NC(=O)[C@@H](NC(=O)CNC(=O)[C@H](Cc1c[nH]cn1)NC(=O)C(C)(C)NC(=O)CCc1c[nH]cn1)[C@@H](C)O)[C@@H](C)O)C(C)C)C(=O)N[C@@H](C)C(=O)N[C@@H](Cc1c[nH]c2ccccc12)C(=O)N[C@@H](CC(C)C)C(=O)N[C@@H](CC(C)C)C(=O)N[C@@H](CCCCNC(=O)CC[C@H](NC(=O)CC[C@H](NC(=O)COCCOCCNC(=O)CC[C@H](NC(=O)CC[C@H](NC(=O)CCCCCCCCCCCCCCCCC(=O)O)C(=O)O)C(=O)O)C(=O)O)C(=O)O)C(=O)NCC(=O)N[C@@H](C)C(=O)NCC(=O)O [Example 35, N^ε34-[(4S)-4-carboxy-4-[[(4S)-4-carboxy-4-[[2-[2-[2-[[(4S)-4-carboxy-4-[[(4S)-4-carboxy-4-(17-carboxyheptadecanoylamino)butanoyl]amino]butanoyl]amino]ethoxy]ethoxy]acetyl]amino]butanoyl]amino]butanoyl]-[Imp7,Aib8,His9,Arg18,Arg23,Arg26,Leu33,Ala36]-GLP-1-(7-37)-peptide] (Desaminohistidyl-[Aib]HGTFTSDVSRYLEGRAAREFIAWLLK([γGlu-γGlu-AEEA-γGlu-γGlu-C18 diacid])GAG-OH)
3 | 8.37 | CC[C@H](C)[C@H](NC(=O)[C@H](Cc1ccccc1)NC(=O)[C@H](CCC(=O)O)NC(=O)[C@H](CCCNC(=N)N)NC(=O)[C@H](C)NC(=O)[C@H](C)NC(=O)[C@H](CCC(N)=O)NC(=O)[C@H](CCC(=O)O)NC(=O)[C@H](CCC(=O)O)NC(=O)[C@H](CC(C)C)NC(=O)[C@H](Cc1ccc(O)cc1)NC(=O)[C@H](CCCCN)NC(=O)[C@H](CO)NC(=O)[C@@H](NC(=O)[C@H](CC(=O)O)NC(=O)[C@H](CO)NC(=O)[C@@H](NC(=O)[C@H](Cc1ccccc1)NC(=O)[C@@H](NC(=O)CNC(=O)[C@H](Cc1c[nH]cn1)NC(=O)C(C)(C)NC(=O)CCc1c[nH]cn1)[C@@H](C)O)[C@@H](C)O)C(C)C)C(=O)N[C@@H](C)C(=O)N[C@@H](Cc1c[nH]c2ccccc12)C(=O)N[C@@H](CC(C)C)C(=O)N[C@@H](CC(C)C)C(=O)N[C@@H](CCCCNC(=O)CNC(=O)[C@H](CO)NC(=O)CC[C@H](NC(=O)CC[C@H](NC(=O)CCCCCCCCCCCCCCCCC(=O)O)C(=O)O)C(=O)O)C(=O)N[C@H](C(N)=O)[C@@H](C)O [Example 4, N^ε34-[2-[[(2S)-2-[[(4S)-4-carboxy-4-[[(4S)-4-carboxy-4-(17-carboxyheptadecanoylamino)butanoyl]amino]butanoyl]amino]-3-hydroxypropanoyl]amino]acetyl]-[Imp7,Aib8,His9,Lys18,Glu22,Arg26,Leu33,Thr35]-GLP-1-(7-35)-peptide amide] (Desaminohistidyl-[Aib]HGTFTSDVSKYLEEQAAREFIAWLLK([Gly-Ser-γGlu-γGlu-C18 diacid])T-NH2)
4 | 8.43 | CC[C@H](C)[C@H](NC(=O)[C@H](Cc1ccccc1)NC(=O)[C@H](CCC(=O)O)NC(=O)[C@H](CCCNC(=N)N)NC(=O)[C@H](C)NC(=O)[C@H](C)NC(=O)[C@H](CCCNC(=N)N)NC(=O)[C@H](C)NC(=O)[C@H](CCC(=O)O)NC(=O)[C@H](CC(C)C)NC(=O)[C@H](Cc1ccc(O)cc1)NC(=O)[C@H](CCCCN)NC(=O)[C@H](CO)NC(=O)[C@@H](NC(=O)[C@H](CC(=O)O)NC(=O)[C@H](CO)NC(=O)[C@@H](NC(=O)[C@H](Cc1ccccc1)NC(=O)[C@@H](NC(=O)CNC(=O)[C@H](Cc1c[nH]cn1)NC(=O)C(C)(C)NC(=O)CCc1c[nH]cn1)[C@@H](C)O)[C@@H](C)O)C(C)C)C(=O)N[C@@H](C)C(=O)N[C@@H](Cc1c[nH]c2ccccc12)C(=O)N[C@@H](CC(C)C)C(=O)N[C@@H](CC(C)C)C(=O)N[C@@H](CCCCNC(=O)CC[C@H](NC(=O)COCCOCCNC(=O)COCCOCCNC(=O)CC[C@H](NC(=O)CC[C@H](NC(=O)CCCCCCCCCCCCCCCCC(=O)O)C(=O)O)C(=O)O)C(=O)O)C(=O)NCC(=O)NCC(=O)NCC(=O)O [Example 31, N^ε34-[(4S)-4-carboxy-4-[[2-[2-[2-[[2-[2-[2-[[(4S)-4-carboxy-4-[[(4S)-4-carboxy-4-(17-carboxyheptadecanoylamino)butanoyl]amino]butanoyl]amino]ethoxy]ethoxy]acetyl]amino]ethoxy]ethoxy]acetyl]amino]butanoyl]-[Imp7,Aib8,His9,Lys18,Ala22,Arg23,Arg26,Leu33,Gly36]-GLP-1-(7-37)-peptide] (Desaminohistidyl-[Aib]HGTFTSDVSKYLEARAAREFIAWLLK([γGlu-AEEA-AEEA-γGlu-γGlu-C18 diacid])GGG-OH)
